Results from article PMC4673936, “Design, Synthesis and Biological Evaluation of New 1, 4-Dihydropyridine (DHP) Derivatives as Selective Cyclooxygenase-2 Inhibitors” (Iranian Journal of Pharmaceutical Research : IJPR, 2015).

Assays:
[1] = target: T1, COX-2 (Ovis aries, UniProt P79208); assay: biochemical; format: biochemical; settings: for COX-2 S.I. (in-vitro COX-2 selectivity index): COX-1 IC50/COX-2 IC50; for IC50: ovine COX-1/COX-2 assay kit, mean of two determinations, deviation < 10% of mean; for COX-2 inhibitory activity relative to compound 5e (in words): larger groups (propyl, phenyl) at C-2 position of compound 5e
T1 construct: purchased Cayman chemical, MI, USA
T1 sequence (P79208 17-603): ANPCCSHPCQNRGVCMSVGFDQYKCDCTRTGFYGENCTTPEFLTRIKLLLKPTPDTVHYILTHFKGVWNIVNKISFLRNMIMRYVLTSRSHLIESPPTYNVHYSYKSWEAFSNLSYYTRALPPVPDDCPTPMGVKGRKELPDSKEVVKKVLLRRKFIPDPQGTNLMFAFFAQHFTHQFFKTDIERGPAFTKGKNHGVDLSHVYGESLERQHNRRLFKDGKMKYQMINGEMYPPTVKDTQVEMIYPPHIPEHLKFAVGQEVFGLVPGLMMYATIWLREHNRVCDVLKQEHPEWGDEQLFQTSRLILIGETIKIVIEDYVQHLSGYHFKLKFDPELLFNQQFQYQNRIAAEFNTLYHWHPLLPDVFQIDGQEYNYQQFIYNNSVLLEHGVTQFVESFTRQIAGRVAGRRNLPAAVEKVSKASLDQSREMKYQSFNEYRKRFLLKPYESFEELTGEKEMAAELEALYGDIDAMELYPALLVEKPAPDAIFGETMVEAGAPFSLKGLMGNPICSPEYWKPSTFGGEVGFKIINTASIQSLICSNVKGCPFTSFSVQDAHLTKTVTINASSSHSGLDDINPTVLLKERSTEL
Description: (§1) A group of 1,4-dihydropyridine derivativespossessing a MeSO2 at the para-position of the C-4 phenyl ring, alkyl groups(R1) at the C-2 position and alkyloxycarbonyl groups(COOR2) at the C-3 position were prepared and evaluated for their ability to inhibit COX-1 and COX-2 using chemiluminescent kit (Cayman chemical, MI, USA) according to our previously reported method ([14]).

[2] = target: T2, COX-1 (Ovis aries, UniProt P05979); assay: biochemical; settings: ovine COX-1/COX-2 assay kit; mean of two determinations, deviation < 10% of mean
T2 construct: purchased Cayman chemical, MI, USA
T2 sequence (P05979 25-600): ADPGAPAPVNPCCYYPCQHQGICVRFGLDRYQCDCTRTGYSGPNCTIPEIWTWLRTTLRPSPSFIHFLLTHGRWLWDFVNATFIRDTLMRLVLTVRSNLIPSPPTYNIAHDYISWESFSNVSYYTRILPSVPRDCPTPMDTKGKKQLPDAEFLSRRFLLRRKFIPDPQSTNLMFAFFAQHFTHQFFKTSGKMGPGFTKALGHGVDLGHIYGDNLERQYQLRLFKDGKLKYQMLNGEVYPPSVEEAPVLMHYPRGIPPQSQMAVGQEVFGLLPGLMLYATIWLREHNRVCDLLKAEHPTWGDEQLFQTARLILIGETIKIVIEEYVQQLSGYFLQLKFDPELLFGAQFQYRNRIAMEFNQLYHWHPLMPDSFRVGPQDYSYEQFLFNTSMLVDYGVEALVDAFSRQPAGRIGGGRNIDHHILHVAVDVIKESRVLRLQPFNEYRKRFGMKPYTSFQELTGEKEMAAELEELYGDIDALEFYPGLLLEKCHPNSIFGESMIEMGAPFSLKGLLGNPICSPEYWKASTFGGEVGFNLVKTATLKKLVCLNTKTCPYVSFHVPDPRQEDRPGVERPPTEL
Description: as §1

COX-2 S.I. (in-vitro COX-2 selectivity index) [1] | IC50 [1] | IC50 [2] | melting point | COX-2 inhibitory activity relative to compound 5e (in words) [1] | Compound
18.2 | 1.38 µM | 25.2 µM | 163 to 164 °C | significant loss of activities | CCCC1=C(C(=O)OCC)C(c2ccc(S(C)(=O)=O)cc2)C2=C(CC(C)(C)CC2=O)N1 (stereo not drawn) [Compound 5f, Ethyl-1,4,5,6,7,8-hexahydro-7,7-dimethyl-4-(4-(methylsulfonyl)phenyl)-5-oxo-2-propylquinoline-3-carboxylate]
52.1 | 0.59 µM | 30.7 µM | 186.5 to 188 °C |  | CCC1=C(C(=O)OC)C(c2ccc(S(C)(=O)=O)cc2)C2=C(CC(C)(C)CC2=O)N1 (stereo not drawn) [Compound 5c, Methyl-2-ethyl-1,4,5,6,7,8-hexahydro-7,7-dimethyl-4-(4-(methylsulfonyl)phenyl)-5-oxoquinoline-3-carboxylate]
92.0 | 0.3 µM | 27.6 µM | 180.7 to 182.3 °C |  | CCOC(=O)C1=C(C)NC2=C(C(=O)CC(C)(C)C2)C1c1ccc(S(C)(=O)=O)cc1 (stereo not drawn) [Compound 5e, Ethyl-1,4,5,6,7,8-hexahydro-2,7,7-trimethyl-4-(4-(methylsulfonyl)phenyl)-5-oxoquinoline-3-carboxylate]
 | > 100 µM | 46.1 µM | 187.9 to 189 °C | significant loss of activities | CCOC(=O)C1=C(c2ccccc2)NC2=C(C(=O)CC(C)(C)C2)C1c1ccc(S(C)(=O)=O)cc1 (stereo not drawn) [Compound 5g, Ethyl-1,4,5,6,7,8-hexahydro-7,7-dimethyl-4-(4-(methylsulfonyl)phenyl)-5-oxo-2-phenylquinoline-3-carboxylate]

Continued, compound first:

Compound | COX-2 S.I. (in-vitro COX-2 selectivity index) [1] | IC50 [1] | IC50 [2] | melting point | COX-2 inhibitory activity relative to compound 5e (in words) [1]
COC(=O)C1=C(C)NC2=C(C(=O)CC(C)(C)C2)C1c1ccc(S(C)(=O)=O)cc1 (stereo not drawn) [Compound 5a, Methyl-1,4,5,6,7,8-hexahydro-2,7,7-trimethyl-4-(4-(methylsulfonyl)phenyl)-5-oxoquinoline-3-carboxylate] | 62.9 | 0.48 µM | 30.2 µM | 244 to 245 °C | 
CC1=C(C(=O)OC(C)(C)C)C(c2ccc(S(C)(=O)=O)cc2)C2=C(CC(C)(C)CC2=O)N1 (stereo not drawn) [Compound 5h, t-Butyl-1,4,5,6,7,8-hexahydro-2,7,7-trimethyl-4-(4-methanesulfonyl-phenyl)-5-oxo-quinoline-3-carboxylate] | 63.7 | 0.4 µM | 25.5 µM | 163 to 164 °C | 
COC(=O)C1=C(N)NC2=C(C(=O)CC(C)(C)C2)C1c1ccc(S(C)(=O)=O)cc1 (stereo not drawn) [Compound 5b, Methyl-2-amino-1,4,5,6,7,8-hexahydro-7,7-dimethyl-4-(4-(methylsulfonyl)phenyl)-5-oxo quinolone-3-carboxylate] | 70.4 | 0.44 µM | 31 µM |  | 
COC(=O)C1=C(C(C)C)NC2=C(C(=O)CC(C)(C)C2)C1c1ccc(S(C)(=O)=O)cc1 (stereo not drawn) [Compound 5d] |  | 0.62 µM | 27.6 µM |  | 
CC1=C(C(=O)OCc2ccccc2)C(c2ccc(S(C)(=O)=O)cc2)C2=C(CC(C)(C)CC2=O)N1 (stereo not drawn) [Compound 5i] |  | > 100 µM | 22.9 µM | 136.9 to 138.9 °C | 
